According to patent US20240294543A1, “CYCLOHEPTA-THIENO-DIAZEPINE DERIVATIVES AS GABA A GAMMA1 PAM” (Hoffmann-La Roche Inc., priority 2021, published 2024):

How the values were obtained:
[1] = target: human GABAA α5β2γ1 receptor (Homo sapiens (Human), UniProt P31644+Q8N1C3); experiment: Radioligand binding assay, competition for [3H]RO7239181, γ1-containing GABAA subtypes
[2] = target: human GABAA α1β2γ1 receptor (Homo sapiens (Human), UniProt P14867+Q8N1C3); experiment: as above
[3] = Ki h-GABAA α1β2γ1, membranes of HEK293F cells, [3H]RO7239181 20-30 nM, Table 1
[4] = Ki h-GABAA α1β2γ1, Table 3, reference compounds and examples

SMILES | Ki [1] [nM] | Ki [2, 3] [nM] | Ki [2, 4] [nM]
Cc1nnc2n1-c1sc3c(c1C(c1c(F)cccc1F)=N[C@H]2C)CCCC[C@@H]3F (single isomer, unassigned) [Example 12] | 2.65 | 45.7 | 
Cc1nnc2n1-c1sc3c(c1C(c1c(F)cccc1F)=N[C@H]2C)CC[C@H](F)CC3 (single isomer, unassigned) [Example 14] | 4.87 | 118 | 
Cc1nnc2n1-c1sc3c(c1C(c1c(F)cccc1F)=N[C@H]2C)CC[C@@H](F)CC3 (single isomer, unassigned) [Example 15] | 8 | 131 | 
Cc1nnc2n1-c1sc3c(c1C(c1c(F)cccc1F)=N[C@H]2C)CCC[C@H](F)C3 (single isomer, unassigned) [Example 17] | 1.77 | 30.2 | 
Cc1nnc2n1-c1sc3c(c1C(c1c(F)cccc1F)=N[C@H]2C)CCC(F)C(F)C3 (single isomer, unassigned) [Example 34] | 20.9 | 103 | 
Cc1nnc2n1-c1sc3c(c1C(c1c(F)cccc1F)=NC2)CCCCC3 [Example 1, 9-(2,6-difluorophenyl)-3-methyl-18-thia-2,4,5,8-tetrazatetracyclo[8.8.0.02,6.011,17]octadeca-1(10),3,5,8,11(17)-pentaene] | 1.4 | 20 | 19.7
Cc1nnc2n1-c1sc3c(c1C(c1c(F)cccc1F)=N[C@H]2C)CCCCC3 [Example 2, (7S)-9-(2,6-difluorophenyl)-3,7-dimethyl-18-thia-2,4,5,8-tetrazatetracyclo[8.8.0.02,6.011,17]octadeca-1(10),3,5,8,11(17)-pentaene] | 1.7 | 19.2 | 
Cc1nnc2n1-c1sc3c(c1C(c1c(F)cccc1F)=N[C@H]2C)CCCC(F)(F)C3 [Example 8, (7S)-9-(2,6-difluorophenyl)-15,15-difluoro-3,7-dimethyl-18-thia-2,4,5,8-tetrazatetracyclo[8.8.0.02,6.011,17]octadeca-1(10),3,5,8,11(17)-pentaene] | 12.8 | 312 | 
Cc1nnc2n1-c1sc3c(c1C(c1c(F)cccc1F)=NC2)CCCCO3 [Example 18, 9-(2,6-difluorophenyl)-3-methyl-16-oxa-18-thia-2,4,5,8-tetrazatetracyclo[8.8.0.02,6.011,17]octadeca-1(10),3,5,8,11(17)-pentaene] | 1.84 | 55.1 | 
Cc1nnc2n1-c1sc3c(c1C(c1c(F)cccc1F)=N[C@H]2C)CCCCO3 [Example 19, (7S)-9-(2,6-difluorophenyl)-3,7-dimethyl-16-oxa-18-thia-2,4,5,8-tetrazatetracyclo[8.8.0.02,6.011,17]octadeca-1(10),3,5,8,11(17)-pentaene] | 1.86 | 80.5 | 
Cc1nnc2n1-c1sc3c(c1C(c1c(F)cccc1F)=N[C@H]2C)COCCO3 [Example 21, (7S)-9-(2,6-difluorophenyl)-3,7-dimethyl-13,16-dioxa-18-thia-2,4,5,8-tetrazatetracyclo[8.8.0.02,6.011,17]octadeca-1(10),3,5,8,11(17)-pentaene] | 2.33 | 52.6 | 52.6
C[C@@H]1N=C(c2c(F)cccc2F)c2c(sc3c2COCCO3)-n2nc(C(=O)N3CC(F)C3)nc21 [Example 24, (3-fluoroazetidin-1-yl)-[(7S)-9-(2,6-difluorophenyl)-7-methyl-13,16-dioxa-18-thia-2,3,5,8-tetrazatetracyclo[8.8.0.02,6.011,17]octadeca-1(10),3,5,8,11(17)-pentaen-4-yl]methanone] | 1.25 | 24.7 | 
Cc1nnc2n1-c1sc3c(c1C(c1c(F)cccc1F)=N[C@H]2C)COC[C@H](C)O3 [Example 30, (7S,15S)-9-(2,6-difluorophenyl)-3,7,15-trimethyl-13,16-dioxa-18-thia-2,4,5,8-tetrazatetracyclo[8.8.0.02,6.011,17]octadeca-1(10),3,5,8,11(17)-pentaene] | 3.28 | 205 | 
CCOC1CN(C(=O)c2nc3n(n2)-c2sc4c(c2C(c2c(F)cccc2F)=N[C@H]3C)COCCO4)C1 [Example 31, [(7S)-9-(2,6-Difluorophenyl)-7-methyl-13,16-dioxa-18-thia-2,3,5,8-tetrazatetracyclo[8.8.0.02,6.011,17]octadeca-1(10),3,5,8,11(17)-pentaen-4-yl]-(3-ethoxyazetidin-1-yl)methanone] | 2.4 | 43.6 | 
Cc1nnc2n1-c1sc3c(c1C(c1c(F)cccc1F)=N[C@H]2C)OCCCC3 [Example 33, (7S)-9-(2,6-difluorophenyl)-3,7-dimethyl-12-oxa-18-thia-2,4,5,8-tetrazatetracyclo[8.8.0.02,6.011,17]octadeca-1(10),3,5,8,11(17)-pentaene] | 21.8 | 380 | 
Cc1nnc2n1-c1sc3c(c1C(c1c(F)cccc1Cl)=N[C@H]2C)COCCO3 [Example 35, (7S)-9-(2-chloro-6-fluoro-phenyl)-3,7-dimethyl-13,16-dioxa-18-thia-2,4,5,8-tetrazatetracyclo[8.8.0.02,6.011,17]octadeca-1(10),3,5,8,11(17)-pentaene] | 5.21 | 47.2 | 
CCc1nc2n(n1)-c1sc3c(c1C(c1c(F)cccc1F)=N[C@H]2C)COC[C@H](C)O3 [Example 49, (7S,15S)-9-(2,6-difluorophenyl)-4-ethyl-7,15-dimethyl-13,16-dioxa-18-thia-2,3,5,8-tetrazatetracyclo[8.8.0.02,6.011,17]octadeca-1(10),3,5,8,11(17)-pentaene] | 3.32 |  | 
C[C@@H]1N=C(c2c(F)cccc2F)c2c(sc3c2COC[C@H](C)O3)-n2nc(C(=O)NCCO)nc21 [Example 53, (7S,15S)-9-(2,6-difluorophenyl)-N-(2-hydroxyethyl)-7,15-dimethyl-13,16-dioxa-18-thia-2,3,5,8-tetrazatetracyclo[8.8.0.02,6.011,17]octadeca-1(10),3,5,8,11(17)-pentaene-4-carboxamide] | 6.2 |  | 
Cc1nnc2n1-c1sc3c(c1C(c1c(F)cccc1F)=N[C@H]2C)CC[C@@H](F)CO3 [Example 56, (7S,14R)-9-(2,6-difluorophenyl)-14-fluoro-3,7-dimethyl-16-oxa-18-thia-2,4,5,8-tetrazatetracyclo[8.8.0.02,6.011,17]octadeca-1(10),3,5,8,11(17)-pentaene] | 6.9 |  | 
Cc1nc2n(n1)-c1sc3c(c1C(c1c(F)cccc1F)=N[C@H]2C)COCCC3 [Example 57, (7S)-9-(2,6-difluorophenyl)-4,7-dimethyl-13-oxa-18-thia-2,3,5,8-tetrazatetracyclo[8.8.0.02,6.011,17]octadeca-1(10),3,5,8,11(17)-pentaene] | 1.53 |  | 
C[C@@H]1N=C(c2c(F)cccc2F)c2c(sc3c2COCCC3)-n2nc(C(=O)NCC3(O)CC3)nc21 [Example 62, (7S)-9-(2,6-difluorophenyl)-N-[(1-hydroxycyclopropyl)methyl]-7-methyl-13-oxa-18-thia-2,3,5,8-tetrazatetracyclo[8.8.0.02,6.011,17]octadeca-1(10),3,5,8,11(17)-pentaene-4-carboxamide] | 5.9 |  | 
C[C@@H]1N=C(c2c(F)cccc2F)c2c(sc3c2COCCC3)-n2nc(C(=O)N[C@H]3C[C@H](O)C3)nc21 [Example 63, (7S)-9-(2,6-difluorophenyl)-N-(trans-3-hydroxycyclobutyl)-7-methyl-13-oxa-18-thia-2,3,5,8-tetrazatetracyclo[8.8.0.02,6.011,17]octadeca-1(10),3,5,8,11(17)-pentaene-4-carboxamide] | 8.1 |  | 
C[C@@H]1N=C(c2c(F)cccc2F)c2c(sc3c2COCCC3)-n2nc(C(=O)N[C@H]3C[C@@H](O)C3)nc21 [Example 64, (7S)-9-(2,6-difluorophenyl)-N-(cis-3-hydroxycyclobutyl)-7-methyl-13-oxa-18-thia-2,3,5,8-tetrazatetracyclo[8.8.0.02,6.011,17]octadeca-1(10),3,5,8,11(17)-pentaene-4-carboxamide] | 6.5 |  | 
C[C@@H]1N=C(c2c(F)cccc2F)c2c(sc3c2COCCO3)-n2cc(C(=O)NCC3(O)CC3)nc21 [Example 65, (7S)-9-(2,6-difluorophenyl)-N-[(1-hydroxycyclopropyl)methyl]-7-methyl-13,16-dioxa-18-thia-2,5,8-triazatetracyclo[8.8.0.02,6.011,17]octadeca-1(10),3,5,8,11(17)-pentaene-4-carboxamide] | 1.69 |  | 
C[C@@H]1N=C(c2c(F)cccc2F)c2c(sc3c2COCCC3)-n2cc(C(=O)NCCO)nc21 [Example 66, (7S)-9-(2,6-difluorophenyl)-N-(2-hydroxyethyl)-7-methyl-13-oxa-18-thia-2,5,8-triazatetracyclo[8.8.0.02,6.011,17]octadeca-1(10),3,5,8,11(17)-pentaene-4-carboxamide] | 2.94 |  | 
C[C@@H]1N=C(c2c(F)cccc2F)c2c(sc3c2COCCC3)-n2cc(C(=O)NCC(C)(C)O)nc21 [Example 67, (7S)-9-(2,6-difluorophenyl)-N-(2-hydroxy-2-methyl-propyl)-7-methyl-13-oxa-18-thia-2,5,8-triazatetracyclo[8.8.0.02,6.011,17]octadeca-1(10),3,5,8,11(17)-pentaene-4-carboxamide] | 7.4 |  | 
C[C@@H]1N=C(c2c(F)cccc2F)c2c(sc3c2COCCC3)-n2cc(C(=O)NCC3(O)CC3)nc21 [Example 68, (7S)-9-(2,6-difluorophenyl)-N-[(1-hydroxycyclopropyl)methyl]-7-methyl-13-oxa-18-thia-2,5,8-triazatetracyclo[8.8.0.02,6.011,17]octadeca-1(10),3,5,8,11(17)-pentaene-4-carboxamide] | 2.95 |  | 
C[C@@H]1N=C(c2c(F)cccc2F)c2c(sc3c2COCCC3)-n2nc(C(=O)NC[C@@](C)(O)C(F)(F)F)nc21 [Example 70, (7S)-9-(2,6-difluorophenyl)-7-methyl-N-[(2R)-3,3,3-trifluoro-2-hydroxy-2-methyl-propyl]-13-oxa-18-thia-2,3,5,8-tetrazatetracyclo[8.8.0.02,6.011,17]octadeca-1(10),3,5,8,11(17)-pentaene-4-carboxamide] | 5.8 |  | 
